Laboratory results as given in the CheMixHub viscosity set.

Experiment: xn = mol fraction of the nth substance listed

C=CC(=O)OCCCC + CC#N
viscosity [mPa·s], 100 kPa
Settings | 293.15 K | 298.15 K | 303.15 K | 308.15 K | 313.15 K | 318.15 K
x2 = 0.061 | 0.8625 | 0.8036 | 0.7492 | 0.6997 | 0.6541 | 0.611
x2 = 0.1168 | 0.8292 | 0.7725 | 0.7202 | 0.6725 | 0.6285 | 0.587
x2 = 0.1832 | 0.7901 | 0.7361 | 0.6864 | 0.641 | 0.5992 | 0.5596
x2 = 0.2571 | 0.7473 | 0.6964 | 0.6497 | 0.607 | 0.5677 | 0.5304
x2 = 0.3094 | 0.7174 | 0.6687 | 0.6241 | 0.5834 | 0.5459 | 0.5103
x2 = 0.3825 | 0.6761 | 0.6306 | 0.589 | 0.551 | 0.516 | 0.4829
x2 = 0.4563 | 0.6351 | 0.5928 | 0.5542 | 0.519 | 0.4866 | 0.4558
x2 = 0.5282 | 0.5958 | 0.5566 | 0.521 | 0.4885 | 0.4585 | 0.4301
x2 = 0.5779 | 0.569 | 0.532 | 0.4985 | 0.4678 | 0.4395 | 0.4126
x2 = 0.6483 | 0.5319 | 0.4979 | 0.4672 | 0.4391 | 0.4132 | 0.3886
x2 = 0.7299 | 0.49 | 0.4596 | 0.4322 | 0.4071 | 0.384 | 0.362
x2 = 0.8143 | 0.4484 | 0.4216 | 0.3977 | 0.3758 | 0.3556 | 0.3364
x2 = 0.9182 | 0.3998 | 0.3778 | 0.3584 | 0.3405 | 0.3241 | 0.3086

CCCCCCCCCCCCCC(=O)OC + CCC1CCCCC1
viscosity [mPa·s], 100 kPa
Settings | x2 = 0.1016 | x2 = 0.2015 | x2 = 0.3 | x2 = 0.4021 | x2 = 0.4997 | x2 = 0.6005 | x2 = 0.7005 | x2 = 0.7999 | x2 = 0.9
293.15 K | 4.029 | 3.57 | 3.134 | 2.705 | 2.312 | 1.944 | 1.626 | 1.342 | 1.089
298.15 K | 3.577 | 3.181 | 2.785 | 2.419 | 2.079 | 1.774 | 1.489 | 1.237 | 1.009
303.15 K | 3.173 | 2.839 | 2.508 | 2.191 | 1.893 | 1.616 | 1.367 | 1.14 | 0.935
308.15 K | 2.804 | 2.513 | 2.231 | 1.948 | 1.701 | 1.469 | 1.248 | 1.045 | 0.862
313.15 K | 2.532 | 2.282 | 2.035 | 1.797 | 1.578 | 1.362 | 1.163 | 0.978 | 0.812
318.15 K | 2.328 | 2.104 | 1.887 | 1.666 | 1.469 | 1.277 | 1.097 | 0.93 | 0.772
323.15 K | 2.1 | 1.912 | 1.724 | 1.541 | 1.361 | 1.184 | 1.018 | 0.866 | 0.723

CCCCCOC(C)=O + COc1ccccc1
Settings | viscosity [mPa·s]
298.15 K, 101 kPa, x2 = 0.5 | 0.8265

CCCCCOC(=O)CCC + CC(=O)O
viscosity [mPa·s], 101 kPa
Settings | 298.15 K | 313.15 K
x1 = 0.1013 | 1.06 | 0.853
x1 = 0.1499 | 1.04 | 0.836
x1 = 0.2007 | 1.02 | 0.824
x1 = 0.2515 | 1.03 | 0.827
x1 = 0.3014 | 1.03 | 0.833
x1 = 0.4 | 1.04 | 0.833
x1 = 0.4999 | 1.05 | 0.846
x1 = 0.6018 | 1.07 | 0.85
x1 = 0.6919 | 1.08 | 0.859
x1 = 0.804 | 1.08 | 0.86
x1 = 0.8906 | 1.08 | 0.861
x1 = 0.9459 | 1.07 | 0.859

C=CCC[n+]1ccn(CC)c1.[Br-] + O
viscosity [mPa·s], 101.33 kPa
Settings | x1 = 0.001149 | x1 = 0.001784 | x1 = 0.003604 | x1 = 0.005391 | x1 = 0.007164 | x1 = 0.008843
293.15 K | 1.038 | 1.055 | 1.095 | 1.132 | 1.168 | 1.206
298.15 K | 0.922 | 0.936 | 0.971 | 1.003 | 1.034 | 1.067
303.15 K | 0.825 | 0.837 | 0.867 | 0.895 | 0.924 | 0.95
308.15 K | 0.743 | 0.754 | 0.781 | 0.806 | 0.831 | 0.854
313.15 K | 0.674 | 0.684 | 0.708 | 0.73 | 0.753 | 0.772

CC(C)CO + CC(C)O
viscosity [mPa·s], 101 kPa
Settings | x2 = 0.2 | x2 = 0.4 | x2 = 0.6 | x2 = 0.8
293.15 K | 3.536 | 3.163 | 2.856 | 2.597
313.15 K | 1.923 | 1.742 | 1.586 | 1.449

CCOC(=O)CC + Clc1ccccc1
viscosity [mPa·s], 101.3 kPa
Settings | 308.15 K | 318.15 K
x1 = 0.0485 | 0.647 | 0.598
x1 = 0.102 | 0.636 | 0.588
x1 = 0.1976 | 0.616 | 0.57
x1 = 0.307 | 0.594 | 0.55
x1 = 0.3981 | 0.576 | 0.534
x1 = 0.4981 | 0.557 | 0.517
x1 = 0.6116 | 0.535 | 0.498
x1 = 0.7034 | 0.519 | 0.483
x1 = 0.7992 | 0.501 | 0.467
x1 = 0.9 | 0.484 | 0.451
x1 = 0.9478 | 0.476 | 0.444
